Experimental data published in patent US20190175534A1, “PHARMACEUTICAL COMPOSITIONS COMPRISING DGLA AND USE OF SAME” (DS Biopharma Limited, priority 2016, published 2019).

Experiments:
[1] = Phase 1 multiple-dose skin blister fluid concentrations of free and total DGLA; type: in vivo, human
From the text: The PK of DGLA in human skin following multiple doses of DS107G capsule given once daily for 28 days to healthy subjects.

[2] = system: spontaneous hypertensive rats; assay: Arterial pressure in spontaneous hypertensive rats after seven days of gavage, with intravenous phenylephrine challenge; type: in vivo, rat; conditions: DGLA 50 or 500 mg/kg alone; effect eliminated by aspirin
Procedure: An in vivo investigation of anti-hypertension efficacy following co-administration of DGLA and aspirin in spontaneous hypertensive rats was conducted. This experiment investigated the efficacy of DGLA when co-administered chronically with aspirin to reduce the hypertensive response induced acutely by phenylephrine in spontaneous hypertensive rats. Spontaneously hypertensive adult male rats (250-300 g), bred by Charles River Laboratories, were used for this assay. […] The animals were pair-housed by group (low dose+aspirin, high dose+aspirin or aspirin alone) for the duration of the oral gavage prior to surgery.
The test article was formulated using olive oil as the vehicle. This stock solution was then administered by oral gavage once per day for seven consecutive days. A low and a high dose (50 mg/kg and 500 mg/kg) were tested.
A 5 mg/ml stock solution of aspirin was prepared by dissolving the appropriate amount of aspirin in 100% DMSO which was then diluted in water. The concentration of DMSO was less than 1%. The appropriate volume was administered by oral gavage to each animal once per day for seven consecutive days. The stock solution was stored at room temperature and was considered stable for the duration of the gavage.
The appropriate volume was administered to each animal by an intravenous injection at the end of the experiment on the surgery day. The stock solution was stored at 4° C. and was considered stable for the duration of the experiment.
Male spontaneous hypertensive rats weighing approximately 300 g arrived at the facility at least two days before beginning the oral gavage. Animals were assigned to one of three groups (low dose+aspirin, high dose+aspirin, and aspirin), and were pair-housed during the acclimation period. […]
Rats were anesthetized with a 2.5-3.0% isoflurane-O2 mixture in an induction box. […] Blood pressure, systemic arterial pressure (SAP), and heart rate were monitored continuously for a total of half an hour. Hypertension was detected as an increase in diastolic, systolic or mean blood pressure. […]

[3] = system: patients with moderate to severe atopic dermatitis; assay: Phase II placebo-controlled study of oral DS107G: efficacy (IGA, EASI, SCORAD, pruritus VAS, BSA); type: in vivo, human; conditions: for IGA Non-Responders at Week 8, (%) / IGA Responders at Week 8, (%) / IGA Score Week 8: 0 - Clear, (%) / IGA Score Week 8: 1 - Almost Clear, (%) / IGA Score Week 8: 2 - Mild, (%) / IGA Score Week 8: 3 - Moderate, (%) / IGA Score Week 8: 4 - Severe, (%) / IGA Score Week 8: 5 - Very Severe, (%): ITT; for Visual analog scale of pruritus, Week 8/ET Actual, Mean / Visual analog scale of pruritus, Week 8/ET Actual, Median: oral 2 g once daily
Procedure: A randomised, double-blind, placebo-controlled, phase II study was performed to assess the efficacy and safety of orally administered DS107G (DGLA) to patients with moderate to severe atopic dermatitis. The primary objective of the study was to compare the efficacy of orally administered DS107G capsules, versus placebo, in the treatment of adult patients with moderate to severe atopic dermatitis. The secondary objective was to assess the safety of orally administered DS107G capsules, versus placebo, in adult patients with moderate to severe atopic dermatitis. The primary study endpoint was the proportion of patients achieving an IGA (Investigator Global Assessment) of 0 (clear) or 1 (almost clear) and a decrease of at least 2 points in IGA at week 8. Secondary study endpoints included:
Approximately 100 patients with moderate to severe atopic dermatitis were included in this multicenter, double-blind, placebo controlled, phase IIa study. All subjects signed an informed consent and underwent screening for study eligibility. Subjects were randomized (1:1) at baseline visit to either receive oral DS107G 2 g or placebo, once daily for 8 weeks in a fasting state.
Subjects visited the clinic on 6 occasions: at screening, baseline, week 2, week 4, week 8 (end of treatment/early termination) and week 10 (follow-up). All subjects exited the study at the week 10 visit. The primary efficacy variable was the proportion of patients achieving an IGA of 0 (clear) or 1 (almost clear), and a decrease of at least 2 points in IGA at week 8. Secondary efficacy variables included: IGA at other visits, pruritus (obtained from the SCORAD visual analog scale), EASI, BSA, POEM, DLQI, SCORAD and TEWL (for selected sites only). Safety was assessed through adverse events, physical examination, vital signs and safety laboratory tests (including pregnancy tests for women of childbearing potential), Pharmacokinetic samples were obtained at Baseline (Day 0), week 4 and week 8 visits in order to measure total and free DGLA plasma trough levels. Separate plasma samples were retained for later analysis of total fatty acid profile and interleukin profile.
The EASI is a composite score ranging from 0-72 that takes into account the degree of erythema, induration/papulation, excoriation, and lichenification (each scored from 0 to 3 separately) for each of four body regions, with adjustment for the percent of BSA involved for each body region and for the proportion of the body region to the whole body. A detailed procedure of EASI score calculation is provided below.
SCORAD is calculated as follows: Six items (erythema, edema/papulation, oozing/crusts, excoriation, lichenification, and dryness) are selected to evaluate the AD severity. The intensity of each item is graded using a 4-point scale:
The overall BSA affected by AD is evaluated (from 0 to 100%) and divided by 5. One patient's palm represents 1% of his/her total BSA. The maximum is 20.
Subjective items include loss of sleep and the occurrence of pruritus. These are evaluated by asking patients to indicate on the 10-cm scale (0-10) on the assessment form the point corresponding to the average value for the last three days/nights. The combined maximum score of these two is 20.
The sum of the above measures represents the SCORAD which can vary from 0 to 103. If the subjective scores of pruritus and loss of sleep are excluded, the SCORAD becomes objective SCORAD (score range 0-83).
Body Surface Area (BSA). The overall BSA affected by AD will be evaluated (from 0 to 100%) at each visit. One patient's palm represents 1% of his/her total BSA. For all study visits, except at screening, the BSA of involved skin will be measured with the SCORAD measurement and evaluated as a separate endpoint.
Subjects who fulfilled all the inclusion and none of the exclusion criteria were accepted in the study. Each subject read and signed an informed consent form prior to any screening procedures being performed. […]

[4] = oral 2 g once daily 8 weeks, n 35

With CCCCC/C=C\C/C=C\C/C=C\CCCCCCC(=O)O [DGLA, Dihomo gamma linolenic acid] the “Mean total DGLA concentration in skin blister fluid, Day 28 over Day 1” value ([1]; 2000 mg daily) was “about 2.5 fold”, the “Mean total DGLA concentration in skin blister fluid, Day 28 over Day 1” value ([1]; 4000 mg daily) was about 3 fold and the “Increase of mean total DGLA concentrations in skin blister fluid with a doubling in dose” value ([1]; Days 1, 8, 14 and 28) was “about 1.4 fold”. The “Mean free DGLA concentrations in skin blister fluid with a doubling in dose” value ([1]; Days 1, 8, 14 and 28, 2000 vs 4000 mg daily) was “approximately doubled”, the “Mean free DGLA concentration in skin blister fluid, Day 28 over Day 1” value ([1]; both 2000 and 4000 mg daily) was “about 3 fold” and the “Mean concentrations of free DGLA in plasma versus skin blister fluid” value ([1]; same dose, Day 8 and Day 14 (but not Day 28)) was “somewhat similar”. The “Mean concentrations of total DGLA in plasma versus skin blister fluid” value ([1]; same dose, after Day 1) was “much higher in plasma than in skin blister fluid”, the “Effect on arterial pressure in spontaneously hypertensive rats” value [2] was “successfully decreases the arterial pressure” and the “IGA Non-Responders at Week 8, (%)” value ([3]; Moderate at baseline) was “(72.4) %”. The “IGA Responders at Week 8, (%)” value ([3]; Moderate at baseline) was “(27.6) %”, the “IGA Score Week 8: 0 - Clear, (%)” value ([3]; Moderate at baseline) was “(13.8) %” and the “IGA Score Week 8: 1 - Almost Clear, (%)” value ([3]; Moderate at baseline) was “(13.8) %”. For the same compound, the “IGA Score Week 8: 2 - Mild, (%)” value ([3]; Moderate at baseline) was “(20.7) %”, the “IGA Score Week 8: 3 - Moderate, (%)” value ([3]; Moderate at baseline) was “(13.8) %” and the “IGA Score Week 8: 4 - Severe, (%)” value ([3]; Moderate at baseline) was “(3.4) %”. The “IGA Score Week 8: 5 - Very Severe, (%)” value ([3]; Moderate at baseline) was “(0.0) %”, the “IGA Non-Responders at Week 8, (%)” value ([3]; Very Severe/Severe at baseline) was “(72.7) %” and the “IGA Score Week 8: 0 - Clear, (%)” value ([3]; Very Severe/Severe at baseline) was “(0.0) %”. The “IGA Score Week 8: 1 - Almost Clear, (%)” value ([3]; Very Severe/Severe at baseline) was “(13.6) %”, the “IGA Score Week 8: 2 - Mild, (%)” value ([3]; Very Severe/Severe at baseline) was “(13.6) %” and the “IGA Score Week 8: 3 - Moderate, (%)” value ([3]; Very Severe/Severe at baseline) was “(27.3) %”. For the same compound, the “IGA Score Week 8: 4 - Severe, (%)” value ([3]; Very Severe/Severe at baseline) was “(13.6) %”, the “IGA Score Week 8: 5 - Very Severe, (%)” value ([3]; Very Severe/Severe at baseline) was “(4.5) %” and the “IGA Responders at Week 8, (%)” value ([3]; Very Severe/Severe at baseline, p-value 0.542) was “(27.3) %”. For the same compound, the “IGA Non-Responders at Week 8, (%)” value ([3]; total population (N = 51)) was “(72.5) %”, the “IGA Score Week 8: 0 - Clear, (%)” value ([3]; total population (N = 51)) was “(7.8) %” and the “IGA Score Week 8: 1 - Almost Clear, (%)” value ([3]; total population (N = 51)) was “(13.7) %”. The “IGA Score Week 8: 2 - Mild, (%)” value ([3]; total population (N = 51)) was “(17.6) %”, the “IGA Score Week 8: 3 - Moderate, (%)” value ([3]; total population (N = 51)) was “(19.6) %” and the “IGA Score Week 8: 4 - Severe, (%)” value ([3]; total population (N = 51)) was “(7.8) %”. The “IGA Score Week 8: 5 - Very Severe, (%)” value ([3]; total population (N = 51)) was “(2.0) %”, the “IGA Responders at Week 8, (%)” value ([3]; total population, decrease of at least 2 points in IGA score, p-value 0.065 (Cochran-Mantel-Haenszel), 0.228 (Fisher Exact)) was “(27.5) %” and the “Visual analog scale of pruritus, Week 8/ET Actual, Mean” value ([3]; Table 9A (Week 4), n 35) was 4.6. The “Visual analog scale of pruritus, Week 8/ET Actual, Median” value ([3]; Table 9A (Week 4), n 35) was 4.0, the “Visual analog scale of pruritus, Week 8/ET Actual, Mean” value ([3]; Table 9B (Week 8), n 35) was 4.6 and the “Visual analog scale of pruritus, Week 8/ET Actual, Median” value ([3]; Table 9B (Week 8), n 35) was 4.0. For the same compound, the “EASI, Change from baseline, LSMEANS” value ([3]; Week 8/ET, ANCOVA, p-value 0.831 vs placebo) was −8.0, the “Primary efficacy end point (two point drop in IGA and end of treatment IGA of 0 or 1) over placebo” value ([3]; intent to treat analysis, overall, p=0.057) was “clinically significant trend” and the “Primary efficacy end point (two point drop in IGA and end of treatment IGA of 0 or 1) over placebo” value ([3]; moderate patient subgroup (n=67), p=0.036) was “statistically significant improvement”. The “Body surface area affected by atopic dermatitis, Week 8/ET Actual, Median” value [3, 4] was 12.0, the “EASI, Week 8/ET Actual, Median” value [3, 4] was 7.4 and the “Eczema area and severity index (EASI), Week 8/ET Actual, Mean” value [3, 4] was 9.3. For the same compound, the “Pruritus score [visual analog scale]” value ([3]; within four weeks of dosing, p=0.015) was “statistically significant reduction of itch”.
